Data as given in patent US8008251B2, “Macrocyclic inhibitors of hepatitis C virus” (Tibotec Pharmaceuticals Ltd., priority 2005, dated 2011).
Where two headings read alike, the source gives them in different places.

Assays:
[1] = tested on: HCV replicons (NS3-NS5B regions of HCV type 1b) in Huh-7 luc/neo cells; test: HCV replicon assay (Huh-Luc, luciferase readout); type: cell-based; conditions: Hepatitis C virus, Huh-7, 72 h, three days incubation, luciferase activity
Description: The in vitro antiviral activity against HCV of the compounds of formula (I) was tested in a cellular HCV replicon system based on Lohmann et al. (1999) Science 285:110-113, with the further modifications described by Krieger et al. (2001), Journal of Virology 75: 4614-4624, which is further exemplified in the examples section. This model, while not a complete infection model for HCV, is widely accepted as the most robust and efficient model of autonomous HCV RNA replication currently available. […] It will be appreciated that it is important to distinguish between compounds that specifically interfere with HCV functions from those that exert cytotoxic or cytostatic effects in the HCV replicon model, and as a consequence cause a decrease in HCV RNA or linked reporter enzyme concentration. Assays are known in the field for the evaluation of cellular cytotoxicity based for example on the activity of mitochondrial enzymes using fluorogenic redox dyes such as resazurin. Furthermore, cellular counter screens exist for the evaluation of non-selective inhibition of linked reporter gene activity, such as firefly luciferase. Appropriate cell types can be equipped by stable transfection with a luciferase reporter gene whose expression is dependent on a constitutively active gene promoter, and such cells can be used as a counter-screen to eliminate non-selective inhibitors.
The compounds of formula (I) were examined for activity in the inhibition of HCV RNA replication in a cellular assay. […] The cellular assay was based on a bicistronic expression construct, as described by Lohmann et al. (1999) Science vol. 285 pp. 110-113 with modifications described by Krieger et al. (2001) Journal of Virology 75: 4614-4624, in a multi-target screening strategy. In essence, the method was as follows.
The assay utilized the stably transfected cell line Huh-7 luc/neo (hereafter referred to as Huh-Luc). This cell line harbors an RNA encoding a bicistronic expression construct comprising the wild type NS3-NS5B regions of HCV type 1b translated from an Internal Ribosome Entry Site (IRES) from encephalomyocarditis virus (EMCV), preceded by a reporter portion (FfL-luciferase), and a selectable marker portion (neo^R, neomycine phosphotransferase). […]
The replicon cells were plated in 384 well plates in the presence of the test and control compounds which were added in various concentrations. Following an incubation of three days, HCV replication was measured by assaying luciferase activity (using standard luciferase assay substrates and reagents and a Perkin Elmer ViewLux™ ultraHTS microplate imager). […] The inhibitory activity of the compound on luciferase activity was monitored on the Huh-Luc cells, enabling a dose-response curve for each test compound.

[2] = target: T1, full-length hepatitis C NS3 protease enzyme with NS4A cofactor (HCV NS3/4A protease) (Hepatitis C virus genotype 1a, UniProt P27958); test: Enzymatic inhibition assay of HCV NS3/4A protease; type: biochemical
T1 construct: full-length hepatitis C NS3 protease enzyme
T1 sequence (P27958 1027-1657, other chains not shown): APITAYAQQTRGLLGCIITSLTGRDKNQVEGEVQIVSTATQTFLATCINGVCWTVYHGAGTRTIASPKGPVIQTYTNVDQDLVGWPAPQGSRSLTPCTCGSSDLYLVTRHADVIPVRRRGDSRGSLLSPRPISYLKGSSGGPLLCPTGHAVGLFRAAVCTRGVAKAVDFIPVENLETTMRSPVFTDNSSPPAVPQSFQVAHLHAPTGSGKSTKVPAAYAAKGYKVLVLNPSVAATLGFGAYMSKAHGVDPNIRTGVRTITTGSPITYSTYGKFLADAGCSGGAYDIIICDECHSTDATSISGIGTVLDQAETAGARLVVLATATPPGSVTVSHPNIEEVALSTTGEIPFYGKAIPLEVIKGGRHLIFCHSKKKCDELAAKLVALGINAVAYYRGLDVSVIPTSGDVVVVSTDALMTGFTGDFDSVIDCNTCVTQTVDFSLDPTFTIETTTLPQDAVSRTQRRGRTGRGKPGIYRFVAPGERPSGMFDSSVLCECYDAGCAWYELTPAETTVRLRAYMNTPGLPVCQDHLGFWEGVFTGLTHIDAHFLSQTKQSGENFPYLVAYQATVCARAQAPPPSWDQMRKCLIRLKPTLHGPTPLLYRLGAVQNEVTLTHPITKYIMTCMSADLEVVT
Description: [Landro, Biochemistry, 1997, 36(31): 9340-9348]. […] The solutions were stored at −20° C. between measurements.
[Liu, 1999 Analytical Biochemistry 267 331-335].

in vitro = conditions: human, Caco-2
[3] = reference compounds for permeability assay; cited from earlier work
[4] = rcm bond, Hoveyda-Grubbs 1st generation catalyst, 1,2-dichloroethane, 83.0 °C
[5] = In vitro metabolic blocking by ritonavir in human liver microsomes; type: in vitro ADME; conditions: human liver microsomes 1 mg/ml
Description: Different HCV NS3/4a protease inhibitors were tested in a metabolic blocking experiment using 3 μM test compound together with 10 μM ritonavir acting as booster. Test compounds and ritonavir were added to human liver microsomes (protein concentration 1 mg/ml) suspended in potassium phosphate buffer (pH=7.4), to get final reaction mixture concentrations of 3 μM test compound and 10 μM ritonavir. In the non-boosted parallel reactions, ritonavir was not added. Boiled human liver microsomes were used for blank experiments. After addition (in a 1:3 ratio) of a cofactor mixture consisting of β-nicotinamide adenine dinucleotide phosphate (β-NADP, 0.5 mg/ml, 653.2 μM), D-Glucose-6-phosphate (2 mg/ml, 7.1 mM), Glucose-6-phosphate dehydrogenase (1.5 U/ml) in 2% NaHCO3, the reaction mixture was incubated at 37° C. for 30 or 120 minutes after which the reaction was stopped by increasing the temperature to 95° C. Test compound concentrations were determined using HPLC-MS.
Values are percentages of test compound detected after the indicated incubation times as compared to the initial test compound concentration. Each value is the mean of the results of two independent experiments.

[6] = Oral pharmacokinetics in dog with and without ritonavir boosting; type: in vivo, male Beagle dogs; conditions: single oral 10 mg/kg, boosted with ritonavir (Norvir 100 mg capsule) vs non-boosted
Description: Oral pharmacokinetics of Compound nr. 9 in male Beagle dogs after a single dose at 10 mg/kg, using a formulation in 50% PEG400/water and the influence of “boosting” with 10 mg/kg ritonavir were investigated.
Six male Beagle dogs (body weight 8-10 kg) were randomly divided into 2 groups of 3 animals (boosted and non-boosted). No untreated or vehicle-treated control animals were included. […] Drinking water remained available throughout the experiment.
Dogs from the non-boosted group received a single oral 10 mg/kg dose of Compound nr. 9, formulated as a 5 mg/ml 50% PEG400/water. Dogs from the boosted group received a single soft capsule of Norvir® (ritonavir, 100 mg/capsule), about 30 minutes before single oral dosing with 10 mg/kg of Compound nr. 9. The drug formulations were administered by oral gavage, using a gastric tube.
A 3 ml blood sample was collected at 0.5 h 1 h, 2 h, 4 h, 6 h, 8 h and 24 hours after dosing of Compound nr. 9. Plasma concentrations were determined using HPLC-MS. Results are shown in the table 5 below, expressed as fold change in pharmacokinetic parameter of the boosted group as compared to the non-boosted group.

| SMILES | EC50 [1] | Ki [2] | Papp at 120 min, 10 μM (in vitro) | also measured |
| --- | --- | --- | --- | --- |
| COc1ccc2c(O[C@@H]3C[C@H]4C(=O)N[C@]5(C(=O)NS(=O)(=O)C6CC6)C[C@H]5/C=C\CCCCNC(=O)N4C3)cc(-c3nc(C(C)C)cs3)nc2c1 [Compound 26, Cyclopropanesulphonic acid {17-[2-(4-isopropylthiazol-2-yl)-7-methoxyquinolin-4-yloxy]-2,14-dioxo-3,13,15-triaza-tricyclo[13.3.0.0^4,6]-octadec-7-ene-4-carbonyl}-amide] | 0.0064 µM | 0.4 nM | 3.6 ×10⁻⁶ cm/s | – |
| N[C@@H](Cc1ccccc1)C(=O)O [L-Phenylalanine] | – | – | – | % absorption in man [3]: 100% |
| CCOC(=O)C12CC1C=CCCCCN(C)C(=O)N1CC(Oc3cc(-c4nc(C(C)C)cs4)nc4cc(OC)ccc34)CC1C(=O)N2 (stereo not shown) | – | – | – | ring closure, yield of all isomers ([4]; from C=CCCCCN(C)C(=O)N1CC(Oc2cc(-c3nc(C(C)C)cs3)nc3cc(OC)ccc23)CC1C(=O)NC1(C(=O)OCC)CC1C=C, 1.45 mM): 74% |
| COc1ccc2c(O[C@@H]3C[C@H]4C(=O)N[C@]5(C(=O)NS(=O)(=O)C6CC6)C[C@H]5/C=C\CCCCCNC(=O)N4C3)cc(-c3nc(C(C)C)cs3)nc2c1 [Compound 9, N-[18-[2-(4-isopropylthiazol-2-yl)-7-methoxyquinolin-4-yl-oxy]-2,15-dioxo-3,14,16-triazatricyclo[14.3.0.0^4,6]nonadec-7-ene-4-carbonyl]-(cyclopropyl)sulfonamide] | 0.007 µM | 0.12 nM | 11 ×10⁻⁶ cm/s | % Detected Compound, 30′, ritonavir ([5]; 3 μM test compound + 10 μM ritonavir, 30 min): 88%; % Detected Compound, 120′, ritonavir ([5]; 3 μM test compound + 10 μM ritonavir, 120 min): 100%; % Detected Compound, 30′, No Booster ([5]; 3 μM test compound, 30 min, no ritonavir): 44%; % Detected Compound, 120′, No Booster ([5]; 3 μM test compound, 120 min, no ritonavir): 0%; Fold increase in AUC when boosted with ritonavir [6]: 55 fold; Fold increase in Cmax when boosted with ritonavir [6]: 31 fold |
| COc1ccc2c(O[C@@H]3C[C@H]4C(=O)N[C@]5(C(=O)NS(=O)(=O)C6(C)CC6)C[C@H]5/C=C\CCCCNC(=O)N4C3)cc(-c3nc(C(C)C)cs3)nc2c1 [Compound 28, 1-Methyl-cyclopropanesulphonic acid [17-[2-(4-isopropyl-thiazol-2-yl)-7-methoxyquinolin-4-yloxy]-2,14-dioxo-3,13,15-triaza-tricyclo-[13.3.0.0^4,6]octadec-7-ene-4-carbonyl]-amide] | 0.0023 µM | 0.3 nM | 8.6 ×10⁻⁶ cm/s | – |
| CCOC(=O)C12CC1C=CCCCCN(C)C(=O)N1CC(OC(=O)c3ccc([N+](=O)[O-])cc3)CC1C(=O)N2 (stereo not shown) | – | – | – | ring closure, yield of all isomers ([4]; from C=CCCCCN(C)C(=O)N1CC(OC(=O)c2ccc([N+](=O)[O-])cc2)CC1C(=O)NC1(C(=O)OCC)CC1C=C, 1.93 mM): 74% |
| CCOC(=O)C12CC1C=CCCCCCNC(=O)N1CC(Oc3cc(-c4nc(C(C)C)cs4)nc4cc(OC)ccc34)CC1C(=O)N2 (stereo not shown) | – | – | – | ring closure, yield of all isomers ([4]; from C=CCCCCCNC(=O)N1CC(Oc2cc(-c3nc(C(C)C)cs3)nc3cc(OC)ccc23)CC1C(=O)NC1(C(=O)OCC)CC1C=C, 2.2 mM, 16.0 h): 57% |
| COc1ccc2c(O[C@@H]3C[C@H]4C(=O)N[C@]5(C(=O)NS(=O)(=O)C6(C)CC6)C[C@H]5/C=C\CCCCCNC(=O)N4C3)cc(-c3nc(C(C)C)cs3)nc2c1 [Compound 33, 1-Methyl-cyclopropanesulphonic acid [18-[2-(4-isopropyl-thiazol-2-yl)-7-methoxyquinolin-4-yloxy]-2,15-dioxo-3,14,16-triaza-tricyclo-[14.3.0.0^4,6]nonadec-7-ene-4-carbonyl]-amide] | 0.0036 µM | 0.3 nM | 31 ×10⁻⁶ cm/s | – |
